Patent US20130338106A1, “COMPOUNDS INHIBITING LEUCINE-RICH REPEAT KINASE ENZYME ACTIVITY” (priority 2011, published 2013)

Target: T1, LRRK2 G2019S mutant kinase (Homo sapiens, UniProt Q5S007, G2019S)
T1 construct: GST; purchased Invitrogen PV4882
Assay: LRRK2 G2019S LanthaScreen TR-FRET kinase assay
Format: biochemical
Conditions: LRRK2 G2019S GST-tagged protein, 100 μM ATP, LRRKtide substrate; read-out: IC50 (potency)
Summary of the method: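 GST-tagged enzyme with 75 nM fluorescein-ERM (LRRKtide) substrate, 100 μM ATP, 2 mM DTT, 1% DMSO final; 1 h at room temperature. Stopped with EDTA and Tb-anti-pERM antibody, 30 min, then TR-FRET read (ex 340, em 520/495 nm); IC50 and maximal inhibition derived.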

T1 sequence (Q5S007 whole entry G2019S): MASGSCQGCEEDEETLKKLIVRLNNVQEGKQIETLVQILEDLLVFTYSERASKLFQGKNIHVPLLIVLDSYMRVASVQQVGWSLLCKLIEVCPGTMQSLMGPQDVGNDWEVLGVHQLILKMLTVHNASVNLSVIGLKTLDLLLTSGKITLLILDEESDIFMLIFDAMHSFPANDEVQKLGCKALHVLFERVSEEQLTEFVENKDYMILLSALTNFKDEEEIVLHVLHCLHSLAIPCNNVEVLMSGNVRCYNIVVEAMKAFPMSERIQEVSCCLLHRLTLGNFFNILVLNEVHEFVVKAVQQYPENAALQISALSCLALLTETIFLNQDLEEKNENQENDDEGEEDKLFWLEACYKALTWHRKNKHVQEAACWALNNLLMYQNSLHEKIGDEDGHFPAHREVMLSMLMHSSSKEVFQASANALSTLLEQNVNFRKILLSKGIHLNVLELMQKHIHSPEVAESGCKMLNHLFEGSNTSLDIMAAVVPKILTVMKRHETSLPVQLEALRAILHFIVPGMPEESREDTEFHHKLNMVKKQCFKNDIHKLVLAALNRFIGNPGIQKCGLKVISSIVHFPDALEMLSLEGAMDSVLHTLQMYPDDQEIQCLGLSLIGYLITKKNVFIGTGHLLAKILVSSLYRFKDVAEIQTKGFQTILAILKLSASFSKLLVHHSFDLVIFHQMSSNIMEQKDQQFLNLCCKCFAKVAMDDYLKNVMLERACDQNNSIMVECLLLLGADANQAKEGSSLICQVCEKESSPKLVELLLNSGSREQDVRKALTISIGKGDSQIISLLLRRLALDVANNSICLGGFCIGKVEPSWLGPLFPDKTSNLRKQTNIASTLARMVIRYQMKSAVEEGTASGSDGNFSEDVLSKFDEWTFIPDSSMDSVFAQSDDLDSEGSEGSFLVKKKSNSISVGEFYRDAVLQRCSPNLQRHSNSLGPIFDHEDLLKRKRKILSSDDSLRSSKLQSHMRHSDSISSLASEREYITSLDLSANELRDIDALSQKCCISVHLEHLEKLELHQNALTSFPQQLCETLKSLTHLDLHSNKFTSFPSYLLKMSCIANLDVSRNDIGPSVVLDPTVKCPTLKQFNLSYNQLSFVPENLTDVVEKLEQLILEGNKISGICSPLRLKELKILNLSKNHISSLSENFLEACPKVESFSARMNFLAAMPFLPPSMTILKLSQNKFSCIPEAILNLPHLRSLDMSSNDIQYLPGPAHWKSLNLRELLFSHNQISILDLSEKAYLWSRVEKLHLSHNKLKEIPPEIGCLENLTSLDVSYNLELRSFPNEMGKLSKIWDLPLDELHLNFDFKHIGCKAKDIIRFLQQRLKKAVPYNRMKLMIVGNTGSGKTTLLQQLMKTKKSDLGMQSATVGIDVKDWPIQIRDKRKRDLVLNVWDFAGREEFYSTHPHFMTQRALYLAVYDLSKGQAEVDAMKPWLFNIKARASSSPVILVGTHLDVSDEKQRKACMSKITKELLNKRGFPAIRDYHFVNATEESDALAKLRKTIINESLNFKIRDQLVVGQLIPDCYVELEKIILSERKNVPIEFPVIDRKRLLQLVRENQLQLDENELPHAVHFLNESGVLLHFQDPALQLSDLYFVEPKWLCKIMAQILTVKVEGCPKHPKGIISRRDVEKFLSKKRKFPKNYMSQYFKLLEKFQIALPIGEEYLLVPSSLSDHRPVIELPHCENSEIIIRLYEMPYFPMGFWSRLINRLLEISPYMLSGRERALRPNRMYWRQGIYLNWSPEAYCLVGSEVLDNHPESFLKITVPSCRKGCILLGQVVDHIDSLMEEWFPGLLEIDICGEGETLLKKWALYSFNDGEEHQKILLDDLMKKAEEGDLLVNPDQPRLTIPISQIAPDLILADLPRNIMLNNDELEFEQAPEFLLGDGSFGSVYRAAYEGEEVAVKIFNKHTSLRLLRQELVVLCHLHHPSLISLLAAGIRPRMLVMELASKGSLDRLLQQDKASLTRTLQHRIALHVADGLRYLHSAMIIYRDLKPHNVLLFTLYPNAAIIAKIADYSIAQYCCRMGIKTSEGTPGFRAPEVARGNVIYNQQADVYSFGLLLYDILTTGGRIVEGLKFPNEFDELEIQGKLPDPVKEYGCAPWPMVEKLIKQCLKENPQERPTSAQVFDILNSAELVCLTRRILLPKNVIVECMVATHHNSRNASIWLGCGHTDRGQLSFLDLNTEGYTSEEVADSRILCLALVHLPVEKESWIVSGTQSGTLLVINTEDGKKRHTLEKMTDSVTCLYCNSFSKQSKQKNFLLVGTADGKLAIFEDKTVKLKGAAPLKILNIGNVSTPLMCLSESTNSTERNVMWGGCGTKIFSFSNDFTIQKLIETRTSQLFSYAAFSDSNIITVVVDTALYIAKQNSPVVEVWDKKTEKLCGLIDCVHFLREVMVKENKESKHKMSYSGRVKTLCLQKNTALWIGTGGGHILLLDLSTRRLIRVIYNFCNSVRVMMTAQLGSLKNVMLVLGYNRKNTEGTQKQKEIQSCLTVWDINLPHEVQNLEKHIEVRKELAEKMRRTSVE

| Compound | IC50 [nM] |
| --- | --- |
| CSc1sc(-c2cc(C)[nH]n2)c2c1C(=O)CC(C)(C)C2 [Example 88, 6,6-Dimethyl-1-(5-methyl-1H-pyrazol-3-yl)-3-(methylsulfanyl)-6,7-dihydro-2-benzothiophen-4(5H)-one] | 1400 |
| CSc1sc(-c2cc(C3CC3)[nH]n2)c2c1C(=O)CC(C)(C)C2 [Example 89, 1-(5-Cyclopropyl-1H-pyrazol-3-yl)-6,6-dimethyl-3-(methylsulfanyl)-6,7-dihydro-2-benzothiophen-4(5H)-one] | 470 |
| CCc1cc(-c2sc(SC)c3c2CC(C)(C)CC3=O)n[nH]1 [Example 90, 1-(5-Ethyl-1H-pyrazol-3-yl)-6,6-dimethyl-3-(methylsulfanyl)-6,7-dihydro-2-benzothiophen-4(5H)-one] | 450 |
| CSc1sc(-c2cc[nH]n2)c2c1C(=O)C(C)CC2 (centres unmarked) [Example 91, 5-Methyl-3-(methylsulfanyl)-1-(1H-pyrazol-3-yl)-6,7-dihydro-2-benzothiophen-4(5H)-one] | 150 |
| CCCC1CCc2c(-c3cc[nH]n3)sc(SC)c2C1=O (centres unmarked) [Example 92, 3-(Methylsulfanyl)-5-propyl-1-(1H-pyrazol-3-yl)-6,7-dihydro-2-benzothiophen-4(5H)-one] | 310 |
